Laboratory results as given in patent US8703106B2, “Chlorine dioxide treatment for biological tissue” (priority 2009, dated 2014).

Experiments:
[1] = Chlorine dioxide loss in fetal blood serum (FBS) solution; type: physicochemical
Description: A series of experiments were conducted to estimate and quantify the effect of blood serum on chlorine dioxide concentration. Solutions of chlorine dioxide and fetal blood serum (FBS) were prepared at different concentrations of chlorine dioxide and FBS, and the chlorine dioxide concentration was tracked using a Spectral Physics UV/Visible spectrophotometer with a direct insertion probe (1 mm path length).
The initial chlorine dioxide concentration was measured using a Hach Model 2400 UV/Vis spectrophotometer. A UV/Vis scan was then measured over the wavelength range of about […] using the direct insertion probe, and this was used to calculate the initial absorbance of the solution. FBS was then added, and UV/Vis scans were run periodically thereafter. The area of the chlorine dioxide absorbance peak was calculated for each scan, and the relative chlorine dioxide concentration at each time was calculated by dividing the area at each time point by the peak area of the initial scan (prior to FBS addition). Relative chlorine dioxide concentration was plotted versus time for each set of chlorine dioxide and FBS concentrations. […] The exponent K2 in the equation is an estimate of the decay rate of chlorine dioxide in the FBS solution. The weight ratio of FBS to chlorine dioxide was calculated by dividing, the mass of FBS added to the solution by the mass of chlorine dioxide in the solution.
(§1) Dosage is given both as the nominal dose based upon the initial chlorine dioxide concentration, and the actual dosage as estimated from the initial chlorine dioxide concentration and the decay relationships described above.
(§2) Columns 3-6 are measured data; columns 7-11 are calculated data. For K2 having a positive sign (such as Samples 20-21), it was assumed that there was insufficient FBS present to cause a material loss of chlorine dioxide. Therefore, for such samples, it was assumed that chlorine dioxide was unchanged over the time of the experiment FIG. 4 is a graph of the results.

[2] = tested on: coagulase-negative Staphylococci in wounds; test: Pig infected wound model, delivery methods (Example 4); type: in vivo
Source text: The test animal was a pig (n=1). Pigs are commonly used as models for wound healing in part because pig skin shares many characteristics with human skin. The porcine model is considered to be an excellent tool for the evaluation of candidate agents intended for use in human wounds.
On Day 0, the pig was anesthetized and sixteen […] full-thickness wounds (eight per side) were created using a custom designed 2-cm trephine. Each wound was 2-cm in diameter. An epinephrine solution (1:10,000 dilution) was applied to the wounds on gauze sponges until hemostasis was complete (approximately 10 minutes). Each wound was then infected with a bacterial inoculum.
Three different bacteria, Pseudomonas aeruginosa, Fusobacterium sp., and coagulase-negative Staphylococci (CNS), were cultured and used to prepare inoculums for the wounds. On the morning of surgery, the bacterial cultures were washed with sterile saline and resuspended in saline to a final density of approximately 10^7 CFU/mL. This bacterial suspension was used to inoculate each wound.
Wounds were dressed with sterile Telfa gauze, and the infections allowed to mature to establish a bacterial biofilm condition. Telfa dressings were moistened with saline: the excess saline was removed by squeezing the Telfa dressings. The dressing was then secured in place with Transpore tape (3M, St. Paul, Minn.), As a secondary dressing, a blue absorbent pad was used to cover all of the wounds. The absorbent layer of the blue pad was placed against the skin for the first few days. If wounds looked too dry, the blue pad was changed with the occlusive side against the skin. A layer of a layer of elastic bandage was wrapped over the blue pad to prevent movement of the dressings underneath. All wound dressing were changed on Day 1.
On Day 2, wounds were treated with a chlorine dioxide composition using different delivery methods. In brief, wounds A2-A4 were treated with continuous irrigation. Treatment for wounds B2-B4 and C2-C4 was multiple, substantially contiguous episodes of contact with a substantially non-cytotoxic chlorine dioxide gel composition. Wounds D2-D4 were treated with intermittent irrigation using a manual irrigation device. A1, B1 and D1 were controls and were not treated with chlorine dioxide. C1 was manually treated with a chlorine dioxide solution.
Wounds A2-A4: Each wound was individually covered with an irrigation device, each having an inlet, port to supply a chlorine dioxide solution and an outlet port for egress of the chlorine, dioxide solution. […]
The pump was activated to achieve an initial flow rate of approximately 80-82 ml mm through each of the three irrigation chambers. Chlorine dioxide concentrations were measured at the outlets using a UV spectrophotometer. […]

[3] = tested on: mixed PA/MRSA biofilm; test: Biofilm kill in protein-rich (FBS) environment (Example 3); type: cell-based, Pseudomonas aeruginosa and Staphylococcus aureus; conditions: for Log Reduction in Organism Count: MRSA + PA
Description: Chlorine dioxide efficacy against biofilm in protein-rich environment A series of experiments were conducted to determine the effect of FBS on the kill of PA. MRSA and mixture PA/MRSA biofilms. Biofilms were grown as described in Example 1, Disks were immersed in 25 ml of FBS solution at double the target FBS concentration, and to that was added 25 ml of chlorine dioxide solution at double the target chlorine dioxide concentration. After the desired contact time, disks were removed from the treatment solutions, neutralized, and plated as described above.
as §1, §2

SMILES: [O][Cl+][O-] [ClO2, chlorine dioxide]
- Final ClO2 Concentration ([1]; 104 mg FBS/mg ClO2, initial 240 ppm, 15.0 min, assumed unchanged): 240 ppm
- Final ClO2 Concentration ([1]; 104 mg FBS/mg ClO2, initial 240 ppm, 30.0 min, assumed unchanged): 240 ppm
- Final ClO2 Concentration ([1]; 104 mg FBS/mg ClO2, initial 240 ppm, 60.0 min, assumed unchanged): 240 ppm
- Decay rate, K2 ([1]; 104 mg FBS/mg ClO2, initial 240 ppm, calculated, positive K2 taken as no loss): 0.0344
- Final ClO2 Concentration ([1]; 131 mg FBS/mg ClO2, initial 191 ppm, 15.0 min, calculated): 107 ppm
- Final ClO2 Concentration ([1]; 131 mg FBS/mg ClO2, initial 191 ppm, 40.0 min, calculated): 87 ppm
- Decay rate, K2 ([1]; 131 mg FBS/mg ClO2, initial 191 ppm, calculated from K2=-0.00927(FBS/ClO2)+1): −0.2134
- levels of Staphylococcus aureus ([2]; pig wounds, improved irrigation methods and gel formulation): moderately lowered
- reduction of coagulase-negative Staph ([2]; pig, Day 2, 400 ppm chlorine dioxide over two hours, versus moist controls): 1-2 logs
- Log Reduction in Organism Count ([3]; Sample 17, FBS 131 mg/mg ClO2, 15.0 min, initial 191 ppm, nominal 2865, corrected 2236 ppm-min): 8.2 log
- Log Reduction in Organism Count ([3]; Sample 18, FBS 131 mg/mg ClO2, 40.0 min, initial 191 ppm, nominal 7640, corrected 5559 ppm-min): 8.2 log
- Log Reduction in Organism Count ([3]; Sample 19, FBS 104 mg/mg ClO2, 15.0 min, initial 240 ppm, nominal and corrected 3600 ppm-min): 8.2 log
- Log Reduction in Organism Count ([3]; Sample 20, FBS 104 mg/mg ClO2, 30.0 min, initial 240 ppm, nominal and corrected 7200 ppm-min): 8.2 log
- Log Reduction in Organism Count ([3]; Sample 21, FBS 104 mg/mg ClO2, 60.0 min, initial 240 ppm, nominal and corrected 14400 ppm-min): 8.2 log
- corrected dose rate resulting in complete kill ([3]; mixed PA/MRSA biofilm, with FBS): ≥ 2000 ppm-rain
